Data taken from patent US20120321621A1, “INHIBITION OF FcyR-MEDIATED PHAGOCYTOSIS WITH REDUCED IMMUNOGLOBULIN PREPARATIONS” (priority 2008, published 2012).

Key:
[1] = system: FcγR-mediated phagocytosis of anti-D-sensitized R2R2 RBCs by monocyte-macrophages; assay: Monocyte monolayer assay (MMA): inhibition of phagocytosis of anti-D-sensitized R2R2 RBCs; assay type: cell-based, human; settings: for inhibition of phagocytosis by chemical alone after dialysis: after extensive dialysis
Excerpt: Residual and phagocytosed RBCs were distinguished by relative differences in refracted light under phase-contrast microscopy.

[2] = system: FcγR-mediated phagocytosis of anti-D-sensitized R2R2 RBCs by monocyte-macrophages; settings: 10^−4M, MMA (Rampersad et al.); cited from earlier work

Row | SMILES | inhibition at 10000 µM ([1]; Homo sapiens, Monocyte, free, undialyzed, 10^−2M, read-out: inhibition of phagocytosis by free chemical) [%] | inhibition of phagocytosis by chemical alone after dialysis [1] | inhibition of FcγR-mediated phagocytosis by chemical alone [2] | inhibition of phagocytosis by undialyzed chemical alone ([1]; undialyzed, 10^−5 or 10^−3 mol per L) [%]
1 | O[C@H](CS)[C@H](O)CS (racemic) [DTT, Dithiothreitol] | ~30 | no inhibition | – | –
2 | Cc1ccc(S(=O)(=O)CS)cc1 [p-toluenesulfonylmethyl mercaptan] | – | not able to inhibit phagocytosis | approximately 70% | –
3 | C[CH2][Hg][S]c1ccccc1C(=O)[O-].[Na+] [thimerosal] | – | no longer inhibits phagocytosis | – | 100
